# Results taken from patent publication US20260234115A1, “LIPID COMPOUNDS, COMPOSITIONS, AND USES THEREOF” (Liberate Bio, Inc., priority 2023, published 2026).
# Marks after values point to notes of the source that are not given here.
# Columns and labels:
# [1] = Dynamic light scattering: LNP particle size and PDI; assay type: physicochemical; details: for PDI N/P:3 / Size (nm) N/P:3 / PDI N/P:6 / Size (nm) N/P:6: LNP
# Outline: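 The LNPs were made by microfluidic mixing of the lipids in ethanol with mRNA in pH 4.0 citrate, then dialyzed into PBS pH 7.4. They were diluted in PBS pH 7.4, and particle size and PDI were measured by dynamic light scattering.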
# [2] = Plate-based fluorescence (RiboGreen) assay: nucleic acid cargo content and encapsulation efficiency of LNPs; assay type: physicochemical; details: for EE (%) N/P:3 / EE (%) N/P:6: LNP
# Outline: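 LNPs made by microfluidic mixing of ethanolic lipids with mRNA in pH 4.0 citrate, dialyzed into PBS pH 7.4. Cargo quantified by RiboGreen fluorescence against a standard curve: Triton-lysed samples give total, TE-only samples give free cargo; encapsulation efficiency from their ratio.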
# mouse organs = assay: In vivo activity screening in mice: organ mean total flux (p/s) of luciferase activity after injection of F2 LNP pools (Table 6, FIG. 7A-7C); details: luciferase mRNA
# Outline: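 C57BL/6J mice given one tail-vein injection of pooled Formulation F2 LNPs carrying firefly luciferase mRNA (0.25-3 mg/kg) in PBS. At 4-6 h, s.c. D-luciferin given; organs imaged ex vivo by IVIS within 10-15 min, after saline cardiac perfusion. Mean total flux (p/s) per organ ROI.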
# [3] = LNP compositions for in vivo mouse study, four formulations (F1-F4) of the lipid compound pooled, or pools of four compounds (sixteen compositions)
# [4] = LNP compositions for in vivo mouse study, four formulations (F1-F4) pooled, or pools of four compounds
# [5] = LNP compositions for Formulation F2 Study
compound,measurement,setting,value
"CCCCC/C=C\C/C=C\CCCCCCCC(=O)OCC(COC(=O)CCCCCCC/C=C\C/C=C\CCCCC)(COC(=O)CCC(CCCCCC)OC(=O)NCCN1CCCC1)COC(=O)CCC(OCCCCCCCC)OCCCCCCCC (centres unmarked) [Compound 6, [2-(4,4-dioctoxybutanoyloxymethyl)-2-[[(9Z,12Z)-octadeca-9,12-dienoyl]oxymethyl]-3-[4-(2-pyrrolidin-1-ylethylcarbamoyloxy)decanoyloxy]propyl](9Z,12Z)-octadeca-9,12-dienoate]",Particle Size (nm),[1]; [3],77.9 nm
same,PDI,[1]; [4],0.107
same,PDI N/P:3,"[1]; Formulation F1, N/P 3",0.09
same,Size (nm) N/P:3,"[1]; Formulation F1, N/P 3",77 ± 2 nm
same,PDI N/P:6,"[1]; Formulation F1, N/P 6",0.172
same,Size (nm) N/P:6,"[1]; Formulation F1, N/P 6",69 ± 3 nm
same,PDI N/P:3,"[1]; Formulation F2, N/P 3",0.027
same,Size (nm) N/P:3,"[1]; Formulation F2, N/P 3",89 ± 2 nm
same,PDI N/P:6,"[1]; Formulation F2, N/P 6",0.012
same,Size (nm) N/P:6,"[1]; Formulation F2, N/P 6",83 ± 1 nm
same,PDI N/P:3,"[1]; Formulation F3, N/P 3",0.059
same,Size (nm) N/P:3,"[1]; Formulation F3, N/P 3",105 ± 5 nm
same,PDI N/P:6,"[1]; Formulation F3, N/P 6",0.078
same,Size (nm) N/P:6,"[1]; Formulation F3, N/P 6",85 ± 1 nm
same,PDI N/P:3,"[1]; Formulation F4, N/P 3",0.084
same,Size (nm) N/P:3,"[1]; Formulation F4, N/P 3",65 ± 1 nm
same,PDI N/P:6,"[1]; Formulation F4, N/P 6",0.081
same,Size (nm) N/P:6,"[1]; Formulation F4, N/P 6",63 ± 1 nm
same,EE %,[2]; [4],99%
same,mRNA Content,[2]; [4],100.1 µg/mL
same,EE (%) N/P:3,"[2]; Formulation F1, N/P 3",99%
same,EE (%) N/P:6,"[2]; Formulation F1, N/P 6",100%
same,EE (%) N/P:3,"[2]; Formulation F2, N/P 3",99%
same,EE (%) N/P:6,"[2]; Formulation F2, N/P 6",100%
same,EE (%) N/P:3,"[2]; Formulation F3, N/P 3",95%
same,EE (%) N/P:6,"[2]; Formulation F3, N/P 6",100%
same,EE (%) N/P:3,"[2]; Formulation F4, N/P 3",98%
same,EE (%) N/P:6,"[2]; Formulation F4, N/P 6",100%
same,Organ Mean Total Flux Femur,"mouse organs; Mouse 1, dose 0.3 mg/kg",6.1 p/s (×10^6)
same,Organ Mean Total Flux Heart,"mouse organs; Mouse 1, dose 0.3 mg/kg",2.1 p/s (×10^6)
same,Organ Mean Total Flux Kidney,"mouse organs; Mouse 1, dose 0.3 mg/kg",1.3 p/s (×10^6)
same,Organ Mean Total Flux Liver,"mouse organs; Mouse 1, dose 0.3 mg/kg",2966 p/s (×10^6)
same,Organ Mean Total Flux Lung,"mouse organs; Mouse 1, dose 0.3 mg/kg",17.6 p/s (×10^6)
same,Organ Mean Total Flux Muscle,"mouse organs; Mouse 1, dose 0.3 mg/kg",8.3 p/s (×10^6)
same,Organ Mean Total Flux Pancreas,"mouse organs; Mouse 1, dose 0.3 mg/kg",2.1 p/s (×10^6)
same,Organ Mean Total Flux Spleen,"mouse organs; Mouse 1, dose 0.3 mg/kg",14.1 p/s (×10^6)
"CCCCC/C=C\CCOC(=O)CCCCCCC(=O)OCC(COC(=O)CCCCCCC(=O)OCC/C=C\CCCCC)(COC(=O)CCCCCCC(=O)OCC/C=C\CCCCC)COC(=O)CCC(CCCCCC)OC(=O)NCCN1CCCC1 (centres unmarked) [Compound 10, O8-[2,2-bis[[8-[(Z)-non-3-enoxy]-8-oxo-octanoyl]oxymethyl]-3-[4-(2-pyrrolidin-1-ylethylcarbamoyloxy)decanoyloxy]propyl]O1-[(Z)-non-3-enyl]octanedioate]",PDI,[1]; [5],0.139
same,Particle Size (nm),[1]; [5],125.5 nm
same,Particle Size (nm),[1]; [3],91.7 nm
same,PDI,[1]; [4],0.176
same,PDI N/P:3,"[1]; Formulation F1, N/P 3",0.208
same,Size (nm) N/P:3,"[1]; Formulation F1, N/P 3",86 ± 4 nm
same,PDI N/P:6,"[1]; Formulation F1, N/P 6",0.09
same,Size (nm) N/P:6,"[1]; Formulation F1, N/P 6",78 ± 3 nm
same,PDI N/P:3,"[1]; Formulation F2, N/P 3",0.097
same,Size (nm) N/P:3,"[1]; Formulation F2, N/P 3",102 ± 3 nm
same,PDI N/P:6,"[1]; Formulation F2, N/P 6",0.122
same,Size (nm) N/P:6,"[1]; Formulation F2, N/P 6",96 ± 0 nm
same,PDI N/P:3,"[1]; Formulation F3, N/P 3",0.081
same,Size (nm) N/P:3,"[1]; Formulation F3, N/P 3",106 ± 2 nm
same,PDI N/P:6,"[1]; Formulation F3, N/P 6",0.092
same,Size (nm) N/P:6,"[1]; Formulation F3, N/P 6",100 ± 3 nm
same,PDI N/P:3,"[1]; Formulation F4, N/P 3",0.278
same,Size (nm) N/P:3,"[1]; Formulation F4, N/P 3",92 ± 4 nm
same,PDI N/P:6,"[1]; Formulation F4, N/P 6",0.227
same,Size (nm) N/P:6,"[1]; Formulation F4, N/P 6",78 ± 1 nm
same,EE %,[2]; [5],98%
same,EE %,[2]; [4],99%
same,mRNA Content,[2]; [4],101.7 µg/mL
same,EE (%) N/P:3,"[2]; Formulation F1, N/P 3",98%
same,EE (%) N/P:6,"[2]; Formulation F1, N/P 6",100%
same,EE (%) N/P:3,"[2]; Formulation F2, N/P 3",98%
same,EE (%) N/P:6,"[2]; Formulation F2, N/P 6",100%
same,EE (%) N/P:3,"[2]; Formulation F3, N/P 3",96%
same,EE (%) N/P:6,"[2]; Formulation F3, N/P 6",100%
same,EE (%) N/P:3,"[2]; Formulation F4, N/P 3",98%
same,EE (%) N/P:6,"[2]; Formulation F4, N/P 6",100%
same,Organ Mean Total Flux Femur,"mouse organs; Mouse 1, dose 0.3 mg/kg",7.1 p/s (×10^6)
same,Organ Mean Total Flux Heart,"mouse organs; Mouse 1, dose 0.3 mg/kg",4.3 p/s (×10^6)
same,Organ Mean Total Flux Kidney,"mouse organs; Mouse 1, dose 0.3 mg/kg",81.1 p/s (×10^6)
same,Organ Mean Total Flux Liver,"mouse organs; Mouse 1, dose 0.3 mg/kg",12560 p/s (×10^6)
same,Organ Mean Total Flux Lung,"mouse organs; Mouse 1, dose 0.3 mg/kg",41.5 p/s (×10^6)
same,Organ Mean Total Flux Muscle,"mouse organs; Mouse 1, dose 0.3 mg/kg",6.2 p/s (×10^6)
same,Organ Mean Total Flux Pancreas,"mouse organs; Mouse 1, dose 0.3 mg/kg",2.7 p/s (×10^6)
same,Organ Mean Total Flux Spleen,"mouse organs; Mouse 1, dose 0.3 mg/kg",12.3 p/s (×10^6)
same,Organ Mean Total Flux Femur,"mouse organs; Mouse 14, dose 0.5 mg/kg",6.5 p/s (×10^6)
same,Organ Mean Total Flux Heart,"mouse organs; Mouse 14, dose 0.5 mg/kg",2.8 p/s (×10^6)
same,Organ Mean Total Flux Kidney,"mouse organs; Mouse 14, dose 0.5 mg/kg",3.7 p/s (×10^6)
same,Organ Mean Total Flux Liver,"mouse organs; Mouse 14, dose 0.5 mg/kg",1175 p/s (×10^6)
same,Organ Mean Total Flux Lung,"mouse organs; Mouse 14, dose 0.5 mg/kg",16.2 p/s (×10^6)
same,Organ Mean Total Flux Muscle,"mouse organs; Mouse 14, dose 0.5 mg/kg",15.1 p/s (×10^6)
same,Organ Mean Total Flux Pancreas,"mouse organs; Mouse 14, dose 0.5 mg/kg",4.0 p/s (×10^6)
same,Organ Mean Total Flux Spleen,"mouse organs; Mouse 14, dose 0.5 mg/kg",10.2 p/s (×10^6)
"CCCCC/C=C\C/C=C\CCCCCCCC(=O)OCC(COC(=O)CCCCCCC/C=C\C/C=C\CCCCC)(COC(=O)CCCCCCC/C=C\C/C=C\CCCCC)COC(=O)CCC(CCCCCC)OC(=O)NCCN1CCCC1 (centres unmarked) [Compound 2, 2-((((9Z,12Z)-octadeca-9,12-dienoyl)oxy)methyl)-2-(((4-(((2-(pyrrolidin-1-yl)ethyl)carbamoyl)oxy)decanoyl)oxy)methyl)propane-1,3-diyl (9Z,9′Z,12Z,12′Z)-bis(octadeca-9,12-dienoate)]",Particle Size (nm),[1]; [3],82.3 nm
same,PDI,[1]; [4],0.11
same,PDI N/P:6,"[1]; Formulation F1, N/P 6",0.16
same,Size (nm) N/P:6,"[1]; Formulation F1, N/P 6",75 ± 8 nm
same,PDI N/P:6,"[1]; Formulation F2, N/P 6",0.04
same,Size (nm) N/P:6,"[1]; Formulation F2, N/P 6",84 ± 1 nm
same,PDI N/P:6,"[1]; Formulation F3, N/P 6",0.04
same,Size (nm) N/P:6,"[1]; Formulation F3, N/P 6",91 ± 0 nm
same,PDI N/P:6,"[1]; Formulation F4, N/P 6",0.18
same,Size (nm) N/P:6,"[1]; Formulation F4, N/P 6",65 ± 2 nm
same,EE %,[2]; [4],96%
same,mRNA Content,[2]; [4],86 µg/mL
same,EE (%) N/P:6,"[2]; Formulation F1, N/P 6",98%
same,EE (%) N/P:6,"[2]; Formulation F2, N/P 6",98%
same,EE (%) N/P:6,"[2]; Formulation F3, N/P 6",98%
same,EE (%) N/P:6,"[2]; Formulation F4, N/P 6",97%
same,Organ Mean Total Flux Femur,"mouse organs; Mouse 1, dose 0.3 mg/kg",0.8 p/s (×10^6)
same,Organ Mean Total Flux Heart,"mouse organs; Mouse 1, dose 0.3 mg/kg",0.2 p/s (×10^6)
same,Organ Mean Total Flux Kidney,"mouse organs; Mouse 1, dose 0.3 mg/kg",0.7 p/s (×10^6)
same,Organ Mean Total Flux Liver,"mouse organs; Mouse 1, dose 0.3 mg/kg",99.8 p/s (×10^6)
same,Organ Mean Total Flux Lung,"mouse organs; Mouse 1, dose 0.3 mg/kg",2.6 p/s (×10^6)
same,Organ Mean Total Flux Muscle,"mouse organs; Mouse 1, dose 0.3 mg/kg",0.5 p/s (×10^6)
same,Organ Mean Total Flux Pancreas,"mouse organs; Mouse 1, dose 0.3 mg/kg",0.2 p/s (×10^6)
same,Organ Mean Total Flux Spleen,"mouse organs; Mouse 1, dose 0.3 mg/kg",15.6 p/s (×10^6)
